Assay results: patent US10792301B2, “Therapeutic polysaccharide midi-GAGR and related materials and methods” (priority 2015, dated 2020)

Key:
Type in all cases: cell-based
[1] = test system: primary mouse cortical neurons (E17, DIV4); test: Neurite outgrowth in primary mouse cortical neurons; settings: 2 days; 1 μM midi-GAGR, dextran, alginate; 0.1 μM LA-GAGR; 0.01 μM HA-GAGR
Experimental: To analyze the effect of polysaccharides on neurite outgrowth, primary mouse cortical neurons were treated with vehicle (H2O) or 1 μM of dextran, alginate, or midi-GAGR, 0.01 μM of HA-GAGR, or 0.1 μM of LA-GAGR for 2 days prior to immunocytochemistry using anti-α-tubulin antibody and secondary Alexa488nm antibody. An etched grid coverslip containing 200 numbered boxes was used to select neurons objectively for image acquisition and analysis. A total of 24 boxes were randomly selected per treatment group. All the neurons having total neurite length longer than 4 times of the diameter of neuron cell body were chosen for image analysis. The total length of the neurites of each neuron was measured using Metamorph and used to calculate average total neurite length. To examine the effect of polysaccharides on the phosphorylation (activation) of nuclear CREB, neurons were stained with anti-pCREB antibody (Abcam & Santa Cruz biotechnologies, 2nd antibody with Alexa568nm), anti-α-tubulin antibody (Sigma, 2nd antibody with Alexa488nm), and DAPI (Sigma) after two-day incubation with vehicle (H2O) or 1 μM of dextran, alginate, or midi-GAGR, 0.01 μM of HA-GAGR, or 0.1 μM of LA-GAGR. […] The images of neurons on coverslips were taken by confocal microscopy at the same gain (850), offset (˜0.01) and exposure time (2 sec). The intensity of the staining of nuclear pCREB was measured using Metamorph and used to calculate average intensity. In addition, the phosphorylation of CREB in the cytosols of mouse cortical neurons treated with polysaccharides were detected by immunoblotting. Primary mouse neurons were dissected from 16 mouse embryos (E17) and plated in the wells of 6-well plates (1×10^6 cells/well), differentiated for 6 days, and treated with polysaccharides for 48 h. […] The protein bands on blots recognized by anti-pCREB (Santa Cruz Biotechnologies) and anti-CREB antibodies were detected on Amersham Hyperfilm™ ECL films (GE Healthcare Life Science) using SuperSignal® West Pico Chemiluminescent Substrate (Thermo Scientific).

[2] = test system: phosphorylated CREB in differentiated PC12 cells; test: Nuclear p-CREB immunostaining in PC12 cells; settings: 1 μM, 24 h
Experimental: Differentiated PC12 cells and mouse embryonic cortical neurons (E17, DIV14) were treated with mock, dextran, alginate, HA-GAGR or midi-GAGR (1 μM) for 24 h and fixed in 3.7% paraformaldehyde. The fixed cells and neurons were immunostained with antibodies against α-tubulin and phosopho-CREB (p-CREB) along with DAPI (nucleus).

[3] = test system: Mouse cortical neurons (E17, DIV5); test: LIVE/DEAD assay, pre-treated mouse cortical neurons with 4HNE, H2O2 or Aβ42; settings: pre-treatment 24 h (1 μM midi-GAGR, dextran, alginate; 0.1 μM LA-GAGR; 0.01 μM HA-GAGR)
Description: The protective effect of polysaccharides on primary cortical neurons from 4HNE, H2O2, and Aβ42 peptide (Sigma) was examined using LIVE/DEAD® Viability/Cytotoxicity Assay Kit (Life Technologies). Female pregnant mice (BALB/C, E17, Charles River Laboratories International, Inc.) or female pregnant SD rats (E17, bred in house) were anesthetized and dissected to obtain 8-9 embryos per animal. Cortical neurons were isolated from embryonic brains and differentiated on poly-L-lysine-coated coverslips in B27/neurobasal medium. For drug treatment before free radical treatment, mouse cortical neurons (5 days in vitro [DIV5.]) were treated with vehicle (H2O), 1 μM of 5 kD dextran (Sigma), alginate (Sigma), midi-GAGR, 0.01 μM of high acyl gellan gum (HA-GAGR, CPKelco Co.), or 0.1 μM of LA-GAGR for 24 h and then treated with 10 μM 4HNE or 50 μM H2O2 for 24 h, or 2 μM A[…]42 peptide for 48 h prior to viability/cytotoxicity assay. For drug co-treatment with free radicals, rat cortical neurons (DIV5) were treated with 1 μM of dextran, alginate, or midi-GAGR, 0.01 μM of HA-GAGR, or 0.1 μM of LA-GAGR along with either 10 μM 4HNE (24 h) or 2 μM Aβ42 peptide (48 h). To examine the extent to which midi-GAGR-mediated neuroprotection depends on FGFR1, rat cortical neurons (E17, DIV5) were pre-treated with 4 μM SU5402 (Sigma) for 6 h and treated with 10 μM 4HNE and either vehicle or 1 μM midi-GAGR for 24 h prior to cell viability/cytotoxicity assay. As controls, neurons were treated with SU5402, midi-GAGR, 4HNE, 4HNE plus midi-GAGR, or SU5402 plus midi-GAGR.
For cell viability/cytotoxicity measurement, neurons on glass coverslips were incubated in 1×PBS containing 2 μM calcein AM (live cells: green) and 4 μM ethidium homodimer-1 (dead cells: red) for 10 min at 37° C. Immediately thereafter, neurons were imaged by 10×objective using a fluorescence Olympus IX71 microscope (Olympus America Inc., Center Valley, Pa.) and, for the acquisition of high-quality images, using TCS SP5 multi-photon laser scanning confocal microscope.
Midi-GAGR attenuated neurite atrophy caused by free reactive radicals. It is now shown herein that midi-GAGR protect neurons from the death caused by free radical insults. The extent to which midi-GAGR protects the primary culture of rodent cortical neurons from 4HNE and H2O2 was determined. In addition to the radicals, amyloid β peptide (Aβ42) was also tested. Aβ42 peptide is a major causative factor that causes oxidative stress and neuron death. Mouse cortical neurons (E17, DIV5) were treated with 10 μM 4HNE (24 h), 50 μM H2O2 (24 h), or 2 μM Aβ42 peptide (48 h) after the treatment of the neurons with vehicle (H2O), midi-GAGR (1 μM), dextran (1 μM), alginate (1 μM), LA-GAGR (0.1 μM), or HA-GAGR (0.01 μM) for 24 h. The concentrations of 4HNE, H2O2, and Aβ42 peptide were chosen according to their patho-physiological concentrations. The concentrations of LA-GAGR and HA-GAGR were chosen because, within the same volume, the total numbers of sugar units in the polysaccharides at the concentrations are close to that of 1 μM midi-GAGR. The viability of neurons was assessed using LIVE/DEAD® Viability/Cytotoxicity Assay Kit in which membrane-permeant calcein AM is cleaved by esterase in live cells, thus yielding green fluorescence, and membrane-impermeant ethidium homodimer-1 stains the nucleic acids of plasma membrane-compromised cells with red fluorescence. The numbers of green (live) and red (dead) neurons in each condition were counted using Metamorph. Although the intensities of green fluorescent signals in neurons treated with either free radicals or Aβ42 peptide were weak, the neurons were included in the counting. About 8-9% of vehicle-treated neurons died during the process of live/dead cell assay (FIGS. 23A-23F, FIGS. 24A-24C).

## dextran
[1]
  fold change in average total neurite length compared to vehicle: did not enhance neuritogenesis
[2]
  increase of the levels of nuclear p-CREB: not significantly increased
[3]; 2 μM Aβ42 48 h, vehicle about 30%
  neuron death after Aβ42 peptide: did not decrease
[3]; 50 μM H2O2 24 h, vehicle ~25%
  neuron death after H2O2: did not reduce
